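96-well plates; 48 h exposure; 5 concentrations. Endpoints by linear interpolation between flanking doses. Not reached: highest tested concentration assigned. The concentration for full growth arrest is given as TGI.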

Test systems include SNB-19 CNS; RPMI-8226 leukemia; HL-60(TB) leukemia; MCF7 breast; EKVX NSCLC; HT29 colon; KM12 colon; SR leukemia; A549 NSCLC; IGROV1 ovarian; OVCAR-5 ovarian; HCT-116 colon; SF-539 CNS; OVCAR-3 ovarian; UO-31 renal; OVCAR-8 ovarian; HCC-2998 colon; SK-MEL-2 melanoma.
Holding throughout (test): NCI tumour cell line growth inhibition, 48 h

On to `CN(C)Cc1cc(C(=O)/C=C/c2ccc(F)cc2)cc(CN(C)C)c1O`, for which the TGI was greater than 100 µM in the assay on SNB-19 CNS; greater than 100 µM with RPMI-8226 leukemia; 35.4 µM in the assay with HL-60(TB) leukemia; 42.4 µM in the assay with MCF7 breast; greater than 100 µM in the assay with EKVX NSCLC; greater than 100 µM with HT29 colon. Moreover, the TGI in the assay on KM12 colon was 48.9 µM; with SR leukemia, 71.4 µM; in the assay on A549 NSCLC, greater than 100 µM; with IGROV1 ovarian, greater than 100 µM; in the assay with OVCAR-5 ovarian, greater than 100 µM; in the assay on HCT-116 colon, 27 µM. Further, the TGI was 44.4 µM in the assay with SF-539 CNS, 50.9 µM in the assay on OVCAR-3 ovarian, 38.9 µM in the assay on UO-31 renal and 83.9 µM in the assay on OVCAR-8 ovarian.
On to `COc1cc2cc3c4c(cc(OC)c(OC)c4c2cc1OC)CCN3C(=O)CCC(=O)O`, for which the TGI with SNB-19 CNS, with HCC-2998 colon, in the assay with RPMI-8226 leukemia, in the assay on HL-60(TB) leukemia, in the assay with EKVX NSCLC and in the assay on HT29 colon was greater than 100 µM throughout. Besides, the TGI in the assay with KM12 colon, with SR leukemia, in the assay with A549 NSCLC, in the assay with IGROV1 ovarian, in the assay on OVCAR-5 ovarian and in the assay with SK-MEL-2 melanoma was greater than 100 µM throughout. Besides, the TGI in the assay with HCT-116 colon, in the assay with SF-539 CNS, in the assay on OVCAR-3 ovarian and with UO-31 renal was greater than 100 µM each time.
For `CC(=O)C1=C(C)N(c2ccccc2)C2(O)C=CC(=O)C3=C(O)c4ccccc4C(=O)C312` (stereo not given), the TGI in the assay on SNB-19 CNS is 38.6 µM; in the assay on HCC-2998 colon, 25.4 µM; in the assay with RPMI-8226 leukemia, greater than 100 µM; with HL-60(TB) leukemia it was 74.1 µM; in the assay with MCF7 breast, greater than 100 µM; in the assay on EKVX NSCLC, 49.1 µM. The TGI in the assay on HT29 colon is greater than 100 µM; with KM12 colon, 40.3 µM; in the assay with SR leukemia it was greater than 100 µM; in the assay on A549 NSCLC, greater than 100 µM; in the assay on IGROV1 ovarian, 34.3 µM; in the assay on OVCAR-5 ovarian, 39.3 µM. The TGI was 39.2 µM with SK-MEL-2 melanoma; greater than 100 µM with HCT-116 colon; 46.7 µM in the assay on SF-539 CNS; 11.4 µM with OVCAR-3 ovarian; 33.7 µM in the assay on UO-31 renal; 34.3 µM in the assay with OVCAR-8 ovarian.
For `O=C1CCCC2=C1CC1=C(CCCC1=O)N2c1cccc([N+](=O)[O-])c1`, the TGI in the assay on SNB-19 CNS, in the assay on HCC-2998 colon, in the assay on RPMI-8226 leukemia, with HL-60(TB) leukemia, in the assay with MCF7 breast and with EKVX NSCLC was greater than 100 µM each time. In addition, the TGI in the assay on HT29 colon, in the assay with KM12 colon, with SR leukemia, with A549 NSCLC, with IGROV1 ovarian and in the assay on OVCAR-5 ovarian was greater than 100 µM throughout. In addition, the TGI in the assay with SF-539 CNS, in the assay on OVCAR-3 ovarian, in the assay with UO-31 renal and in the assay on OVCAR-8 ovarian was greater than 100 µM in each case.
In the case of `CC#CCCCC1(C)CCCNC1=S` (stereo not given), the TGI in the assay on SNB-19 CNS, in the assay with HL-60(TB) leukemia, in the assay on MCF7 breast, with EKVX NSCLC, with HT29 colon and in the assay with KM12 colon was greater than 10 µM throughout. The TGI in the assay with SR leukemia, in the assay with A549 NSCLC, in the assay with IGROV1 ovarian, in the assay with OVCAR-5 ovarian, in the assay on SK-MEL-2 melanoma and in the assay with SF-539 CNS was greater than 10 µM each time. Further, the TGI in the assay on OVCAR-3 ovarian, with UO-31 renal and with OVCAR-8 ovarian was greater than 10 µM throughout.
As for `COc1ccc2c(c1)CCN1C3=C(CCC3)C(=O)C[C@@H]21`, the TGI in the assay on SNB-19 CNS, in the assay with HCC-2998 colon, in the assay on RPMI-8226 leukemia, in the assay with HL-60(TB) leukemia, in the assay on EKVX NSCLC and in the assay on HT29 colon was greater than 100 µM in each case. Further, the TGI in the assay on KM12 colon, with SR leukemia, in the assay with A549 NSCLC, in the assay on IGROV1 ovarian, with OVCAR-5 ovarian and with SK-MEL-2 melanoma was greater than 100 µM throughout. In addition, the TGI in the assay with HCT-116 colon, with SF-539 CNS, in the assay with OVCAR-3 ovarian, in the assay with UO-31 renal and in the assay with OVCAR-8 ovarian was greater than 100 µM throughout.
Turning to `O=[N+]([O-])c1ccc(COc2cccc3cccnc23)cc1`, the TGI in the assay with SNB-19 CNS was greater than 100 µM; in the assay with HCC-2998 colon it was greater than 100 µM; in the assay on RPMI-8226 leukemia, 39.2 µM; in the assay with HL-60(TB) leukemia, 22.3 µM; in the assay on EKVX NSCLC, 70.3 µM; in the assay on HT29 colon, greater than 100 µM. The TGI in the assay on KM12 colon is 96.5 µM; in the assay with SR leukemia, 13.6 µM; in the assay on A549 NSCLC it was greater than 100 µM; in the assay on IGROV1 ovarian, 67.7 µM; in the assay with OVCAR-5 ovarian, greater than 100 µM; in the assay with SK-MEL-2 melanoma, greater than 100 µM. The TGI was greater than 100 µM in the assay on HCT-116 colon; 92.7 µM in the assay on SF-539 CNS; greater than 100 µM with OVCAR-3 ovarian; 68.1 µM with UO-31 renal; greater than 100 µM in the assay with OVCAR-8 ovarian.

The record behind these values is PubChem BioAssay (NCI).
